Results as given in US20030050307A1, “Novel indole derivatives” (H. Lundbeck A/S, priority 1999, published 2003).

Columns and labels:
[1] = target: T1, human cloned dopamine D4.2-receptors (Homo sapiens, UniProt P21917, DEL265-296); experiment: Inhibition of the binding of 3H-YM-09151-2 to human dopamine D4 receptors; conditions: [3H]YM-09151-2 0.06 nM; for IC50: membranes of CHO-cells expressing human D4.2
T1 construct: expressed in transfected cells; host or cells: CHO cells
T1 sequence (P21917 with tags, fused parts or gaps DEL265-296): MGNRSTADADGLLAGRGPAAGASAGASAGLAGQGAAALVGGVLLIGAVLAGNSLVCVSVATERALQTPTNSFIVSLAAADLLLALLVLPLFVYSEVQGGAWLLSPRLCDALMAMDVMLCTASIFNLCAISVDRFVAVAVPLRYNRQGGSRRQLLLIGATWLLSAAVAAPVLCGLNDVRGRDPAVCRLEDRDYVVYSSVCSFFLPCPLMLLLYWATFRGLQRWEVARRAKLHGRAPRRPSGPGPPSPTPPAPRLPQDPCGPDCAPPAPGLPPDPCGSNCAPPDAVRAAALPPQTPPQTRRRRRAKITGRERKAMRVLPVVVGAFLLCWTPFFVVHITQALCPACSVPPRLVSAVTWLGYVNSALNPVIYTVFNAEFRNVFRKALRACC
Procedure: Inhibition of the Binding of ^3H-YM-09151-2 to Human Dopamine D4 Receptors
By this method, the inhibition by drugs of the binding of [^3H]YM-09151-2 (0.06 nM) to membranes of human cloned dopamine D4.2-receptors expressed in CHO-cells is determined in vitro. Method modified from NEN Life Science Products, Inc., technical data certificate PC2533-10/96.

[2] = target: T2, cloned human 5-HT1A-receptors (Homo sapiens, UniProt P08908); experiment: Inhibition of 3H-5-CT binding to human 5-HT1A receptors; conditions: transfected HeLa cells (HA7), 15 minutes at 37° C., pH 7.7
T2 construct: expressed in transfected cells; host or cells: HeLa cells (HA7)
T2 sequence (P08908 1-422): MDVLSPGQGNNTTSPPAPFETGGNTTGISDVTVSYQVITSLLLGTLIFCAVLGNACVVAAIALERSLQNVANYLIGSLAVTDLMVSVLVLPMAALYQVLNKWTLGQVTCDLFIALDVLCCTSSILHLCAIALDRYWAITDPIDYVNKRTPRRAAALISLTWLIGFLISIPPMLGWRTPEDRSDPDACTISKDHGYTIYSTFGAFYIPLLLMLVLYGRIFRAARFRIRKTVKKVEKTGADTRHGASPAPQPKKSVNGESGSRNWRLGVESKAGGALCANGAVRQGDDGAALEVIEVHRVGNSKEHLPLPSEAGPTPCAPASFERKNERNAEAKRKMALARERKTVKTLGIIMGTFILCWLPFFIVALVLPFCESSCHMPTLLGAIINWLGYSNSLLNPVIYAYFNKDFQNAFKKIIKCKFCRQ
Procedure: The affinity of the compounds of the invention to 5-HT1A receptors was determined by measuring the inhibition of binding of a radioactive ligand at 5-HT1A-receptors as described in the following test:
Inhibition of ^3H-5-CT Binding to Human 5-HT1A Receptors.
By this method, the inhibition by drugs of the binding of the 5-HT1A-agonist ^3H-5-carboxamido tryptamine (^3H-5-CT) to cloned human 5-HT1A-receptors stably expressed in transfected HeLa cells (HA7) (Fargin, A. et al. J. Biol. Chem. 1989, 264, 14848) is determined in vitro. The assay was performed as a modification of the method described by Harrington, M. A. et al. J. Pharmacol. Exp. Ther. 1994, 268, 1098. Human 5-HT1A-receptors (40 μg of cell homogenate) were incubated for 15 minutes at 37° C. in 50 mM Tris buffer at pH 7.7 in the presence of ^3H-5-CT. Non-specific binding was determined by including 10 μM of metergoline. The reaction was terminated by rapid filtration through Unifilter GF/B filters on a Tomtec Cell Harvester. Filters were counted in a Packard Top Counter.

[3] = at 100 nM, CHO-cell membranes, human D4.2

Cc1ccc(SCCCN2CCN(c3cccc4[nH]ccc34)CC2)cc1C [Compound 5as, 4-{4-[3-(3,4-Dimethyl-phenylsulfanyl)-propyl]-piperazin-1-yl}-1H-indole]
inhibition at 0.1 µM [1, 3]: 99%
inhibition at 0.05 µM ([2]; at 50 nM): 103%

N#Cc1ccc(OCCCCN2CCN(c3cccc4[nH]ccc34)CC2)c(Cl)c1 [Compound 5ap]
Inhibition of 3H-YM-09151 binding % inhibition at 100 nM [1, 3]: 106%
Inhibition of 3H-5-CT Binding % inhibition at 50 nM ([2]; at 50 nM): 100%

Cc1ccc(SCCN2CCN(c3cccc4[nH]ccc34)CC2)c(C)c1 [Compound 5ac, 4-{4-[2-(2,4-Dimethyl-phenylsulfanyl)-ethyl]-piperazin-1-yl}-1H-indole]
inhibition at 0.1 µM [1, 3]: 83%
inhibition at 0.05 µM ([2]; at 50 nM): 85%

Fc1ccc(OCCCCN2CCN(c3cccc4[nH]ccc34)CC2)c(Br)c1 [Compound 4b, 4-{4-[4-(2-Bromo-4-fluoro-phenoxy)-butyl]-piperazin-1-yl}-1H-indole]
IC50 [1]: 0.66 nM
IC50 [2]: 2.4 nM

Fc1cc(Cl)c(OCCCCN2CCN(c3cccc4[nH]ccc34)CC2)c(Cl)c1 [Compound 4g, 4-{4-[4-(2,6-Dichloro-4-fluoro-phenoxy)-butyl]-piperazin-1-yl}-1H-indole]
IC50 [1]: 4.9 nM
IC50 [2]: 2.4 nM

FC(F)(F)c1ccc(SCCCN2CCN(c3cccc4[nH]ccc34)CC2)cc1 [Compound 5aw, 4-{4-[3-(4-Trifluoromethyl-phenylsulfanyl)-propyl]-piperazin-1-yl}-1H-indole]
inhibition at 0.1 µM [1, 3]: 99%
inhibition at 0.05 µM ([2]; at 50 nM): 98%

Clc1ccccc1SCCCCN1CCN(c2cccc3[nH]ccc23)CC1 [Compound 5ar, 4-{4-[4-(2-Chloro-phenylsulfanyl)-butyl]-piperazin-1-yl}-1H-indole]
inhibition at 0.1 µM [1, 3]: 98%
inhibition at 0.05 µM ([2]; at 50 nM): 104%

N#Cc1cc(Br)c(OCCCN2CCN(c3cccc4[nH]ccc34)CC2)c(Br)c1 [Compound 4o, 3,5-Dibromo-4-{3-[4-(1H-indol-4-yl)-piperazin-1-yl]-propoxy}-benzonitrile]
IC50 [1]: 32 nM
IC50 [2]: 0.72 nM

Fc1cc(Br)cc(F)c1OCCCCN1CCN(c2cccc3[nH]ccc23)CC1 [Compound 4j, 4-{4-[4-(4-Bromo-2,6-difluoro-phenoxy)-butyl]-piperazin-1-yl}-1H-indole]
IC50 [1]: 23 nM
IC50 [2]: 17 nM

Cc1ccc(OCCCCN2CCN(c3cccc4[nH]ccc34)CC2)c(C)c1 [Compound 5ah, 4-{4-[4-(2,4-Dimethyl-phenoxy)-butyl]-piperazin-1-yl}-1H-indole]
inhibition at 0.1 µM [1, 3]: 90%
inhibition at 0.05 µM ([2]; at 50 nM): 86%

CC(C)c1ccccc1SCCCCN1CCN(c2cccc3[nH]ccc23)CC1 [Compound 5bb, 4-{4-[4-(2-Isopropyl-phenylsulfanyl)-butyl]-piperazin-1-yl}-1H-indole]
inhibition at 0.1 µM [1, 3]: 94%
inhibition at 0.05 µM ([2]; at 50 nM): 94%

Clc1ccc(SCCCN2CCN(c3cccc4[nH]ccc34)CC2)cc1Cl [Compound 5ag, 4-{4-[3-(3,4-Dichloro-phenylsulfanyl)-propyl]-piperazin-1-yl}-1H-indole]
inhibition at 0.1 µM [1, 3]: 95%
inhibition at 0.05 µM ([2]; at 50 nM): 93%

Fc1ccc(SCCCN2CCN(c3cccc4[nH]ccc34)CC2)c(Cl)c1 [Compound 4a]
IC50 [1]: 0.52 nM
IC50 [2]: 9.3 nM

Clc1cccc(SCCCCN2CCN(c3cccc4[nH]ccc34)CC2)c1 [Compound 5aq, 4-{4-[4-(3-Chloro-phenylsulfanyl)-butyl]-piperazin-1-yl}-1H-indole]
inhibition at 0.1 µM [1, 3]: 98%
inhibition at 0.05 µM ([2]; at 50 nM): 100%

Fc1cc(Br)c(OCCCCN2CCN(c3cccc4[nH]ccc34)CC2)c(Br)c1 [Compound 4k, 4-{4-[4-(2,6-Dibromo-4-fluoro-phenoxy)-butyl]-piperazin-1-yl}-1H-indole]
IC50 [1]: 26 nM
IC50 [2]: 6.7 nM

Clc1cccc(Cl)c1SCCCCN1CCN(c2cccc3[nH]ccc23)CC1 [Compound 4d, 4-{4-[4-(2,6-Dichloro-phenylsulfanyl)-butyl]-piperazin-1-yl}-1H-indole]
IC50 [1]: 1.8 nM
IC50 [2]: 7.1 nM

Cc1cccc(Cl)c1SCCCCN1CCN(c2cccc3[nH]ccc23)CC1 [Compound 2e, 4-{4-[4-(2-Chloro-6-methyl-phenylsulfanyl)-butyl]-piperazin-1-yl}-1H-indole]
IC50 [1]: 2.2 nM
IC50 [2]: 4.5 nM

Cc1ccc(Cl)c(OCCCCN2CCN(c3cccc4[nH]ccc34)CC2)c1 [Compound 5ak, 4-{4-[4-(2-Chloro-5-methyl-phenoxy)-butyl]-piperazin-1-yl}-1H-indole]
inhibition at 0.1 µM [1, 3]: 93%
inhibition at 0.05 µM ([2]; at 50 nM): 91%

Fc1cc(F)c(OCCCN2CCN(c3cccc4[nH]ccc34)CC2)c(Br)c1 [Compound 4h, 4-{4-[3-(2-Bromo-4,6-difluoro-phenoxy)-propyl]-piperazin-1-yl}-1H-indole]
IC50 [1]: 5.4 nM
IC50 [2]: 1.4 nM

Fc1ccc(SCCN2CCN(c3cccc4[nH]ccc34)CC2)c(Cl)c1 [Compound 3a, 4-{4-[2-(2-Chloro-4-fluoro-phenylsulanyl)-ethyl]-piperazin-1-yl}-1H-indole]
IC50 [1]: 6.6 nM
IC50 [2]: 15 nM

COc1ccc(SCCCCN2CCN(c3cccc4[nH]ccc34)CC2)cc1OC [Compound 5av, 4-{4-[4-(3,4-Dimethoxy-phenylsulfanyl)-butyl]-piperazin-1-yl}-1H-indole]
inhibition at 0.1 µM [1, 3]: 107%
inhibition at 0.05 µM ([2]; at 50 nM): 69%

Clc1ccccc1SCCCN1CCN(c2cccc3[nH]ccc23)CC1 [Compound 2a, 4-{4-[3-(2-Chloro-phenylsulfanyl)-propyl]-piperazin-1-yl}-1H-indole]
IC50 [1]: 1.1 nM
IC50 [2]: 2.4 nM

N#Cc1cccc(OCCCCN2CCN(c3cccc4[nH]ccc34)CC2)c1 [Compound 5at, 3-{4-[4-(1H-Indol-4-yl)-piperazin-1-yl]-butoxy}-benzonitrile]
inhibition at 0.1 µM [1, 3]: 95%
inhibition at 0.05 µM ([2]; at 50 nM): 92%

Fc1ccc(OCCCN2CCN(c3cccc4[nH]ccc34)CC2)c(F)c1 [Compound 4c]
IC50 [1]: 1.6 nM
IC50 [2]: 5.4 nM

C=CCc1cccc(Cl)c1OCCN1CCN(c2cccc3[nH]ccc23)CC1 [Compound 5ae, 4-{4-[2-(2-Allyl-6-chloro-phenoxy)-ethyl]-piperazin-1-yl}1H-indole]
inhibition at 0.1 µM [1, 3]: 88%
inhibition at 0.05 µM ([2]; at 50 nM): 92%

Fc1cc(F)c(OCCN2CCN(c3cccc4[nH]ccc34)CC2)c(Br)c1 [Compound 4p, 4-{4-[2-(2-Bromo-4,6-difluoro-phenoxy)-ethyl]-piperazin-1-yl}-1H-indole]
IC50 [1]: 13 nM
IC50 [2]: 36 nM

Cc1cccc(C)c1SCCCCN1CCN(c2cccc3[nH]ccc23)CC1 [Compound 5ab, 4-{4-[4-(2,6-Dimethyl-phenylsulfanyl)-butyl]-piperazin-1-yl}-1H-indole]
inhibition at 0.1 µM [1, 3]: 95%
inhibition at 0.05 µM ([2]; at 50 nM): 83%

Clc1cccc(SCCCN2CCN(c3cccc4[nH]ccc34)CC2)c1 [Compound 5ao, 4-{4-[3-(3-Chloro-phenylsulfanyl)-propyl]-piperazin-1-yl}-1H-indole]
inhibition at 0.1 µM [1, 3]: 102%
inhibition at 0.05 µM ([2]; at 50 nM): 100%

Clc1ccccc1SCCN1CCN(c2cccc3[nH]ccc23)CC1 [Compound 5an, 4-{4-[2-(2-Chloro-phenylsulfanyl)-ethyl]-piperazin-1-yl}-1H-indole]
inhibition at 0.1 µM [1, 3]: 83%
inhibition at 0.05 µM ([2]; at 50 nM): 91%

CC(C)c1ccccc1SCCCN1CCN(c2cccc3[nH]ccc23)CC1 [Compound 5az, 4-{4-[3-(2-Isopropyl-phenylsulfanyl)-propyl]-piperazin-1-yl}-1H-indole]
inhibition at 0.1 µM [1, 3]: 94%
inhibition at 0.05 µM ([2]; at 50 nM): 98%
